Consider 35 compounds from EP1329454A1, “THIENOPYRIMIDINE COMPOUNDS AND THEIR SALTS AND PROCESS FOR PREPARATION OF BOTH” (NIPPON SODA CO., LTD., priority 2000, dated 2002).

Common to all, as to assay type: biochemical
Assay [1] concerns the target PDE 1 (Ca-calmodulin dependent PDE). Put plainly: Phosphodiesterase inhibiting effect, PDE 1 separated from dog heart. To be noted: isozyme from the heart of a dog; [3H]-cAMP or [3H]-cGMP substrate; read-out: PDE inhibiting activity : IC50(nM) PDE1. As to the method: (§1) Cyclic nucleotide phosphodiesterases from human platelets and from the heart and kidney of a dog were eluted by the concentration gradient method with 70 to 1000 mM of sodium acetate on DEAE-cellulose column chromatography (Whatman Co. Ltd., DE-52, φ 3.2 x 13 cm) according to the method of Thompson and others (Thompson W. J., et al., Advances in Cyclic Nucleotide Research: 10, 69-92, 1979), and separated into isozymes. PDE 5 (cGMP specific PDE), PDE 3 (cGMP inhibited PDE) and PDE 2 (cGMP stimulated PDE) were separated from the platelets, PDE 1 (Ca-calmodulin dependent PDE) and PDE 4 (cAMP specific PDE) were separated from the heart and the kidney respectively. The method of Thompson, et al was partially modified to measure phosphodiesterase activities: […] of [3H]-cAMP or [3H]-cGMP was decomposed with phosphodiesterase. The produced 5'-AMP or 5'-GMP was decomposed to adenosine or guanosine with a snake venom (Sigma V7000). The reaction solution was added to anion exchange resin (Bio-Rad Co. Ltd., AG1-X8). Non-adsorbed adenosine or guanosine was counted by a liquid scintillation counter. […]

Assay [2] deals with T1, PDE 5 (cGMP specific PDE) (Homo sapiens, UniProt O76074).
T1 construct: from tissue; host or cells: human platelets, DEAE-cellulose fraction
Kind of assay: Phosphodiesterase inhibiting effect, PDE 5 separated from human platelets. Particulars: isozyme from human platelets; [3H]-cAMP or [3H]-cGMP substrate; read-out: PDE inhibiting activity : IC50(nM) PDE5. Here is the method: as §1

The target of assay [3] is PDE 4 (cAMP specific PDE). Kind of assay: Phosphodiesterase inhibiting effect, PDE 4 separated from dog kidney. To be noted: isozyme from the kidney of a dog; [3H]-cAMP or [3H]-cGMP substrate; read-out: PDE inhibiting activity : IC50(nM) PDE4. Here is the method: as §1
For assay [4], the target named is T2, PDE 3 (cGMP inhibited PDE) (Homo sapiens, UniProt Q14432).
T2 construct: from tissue; host or cells: human platelets, DEAE-cellulose fraction
T2 sequence (Q14432 whole entry): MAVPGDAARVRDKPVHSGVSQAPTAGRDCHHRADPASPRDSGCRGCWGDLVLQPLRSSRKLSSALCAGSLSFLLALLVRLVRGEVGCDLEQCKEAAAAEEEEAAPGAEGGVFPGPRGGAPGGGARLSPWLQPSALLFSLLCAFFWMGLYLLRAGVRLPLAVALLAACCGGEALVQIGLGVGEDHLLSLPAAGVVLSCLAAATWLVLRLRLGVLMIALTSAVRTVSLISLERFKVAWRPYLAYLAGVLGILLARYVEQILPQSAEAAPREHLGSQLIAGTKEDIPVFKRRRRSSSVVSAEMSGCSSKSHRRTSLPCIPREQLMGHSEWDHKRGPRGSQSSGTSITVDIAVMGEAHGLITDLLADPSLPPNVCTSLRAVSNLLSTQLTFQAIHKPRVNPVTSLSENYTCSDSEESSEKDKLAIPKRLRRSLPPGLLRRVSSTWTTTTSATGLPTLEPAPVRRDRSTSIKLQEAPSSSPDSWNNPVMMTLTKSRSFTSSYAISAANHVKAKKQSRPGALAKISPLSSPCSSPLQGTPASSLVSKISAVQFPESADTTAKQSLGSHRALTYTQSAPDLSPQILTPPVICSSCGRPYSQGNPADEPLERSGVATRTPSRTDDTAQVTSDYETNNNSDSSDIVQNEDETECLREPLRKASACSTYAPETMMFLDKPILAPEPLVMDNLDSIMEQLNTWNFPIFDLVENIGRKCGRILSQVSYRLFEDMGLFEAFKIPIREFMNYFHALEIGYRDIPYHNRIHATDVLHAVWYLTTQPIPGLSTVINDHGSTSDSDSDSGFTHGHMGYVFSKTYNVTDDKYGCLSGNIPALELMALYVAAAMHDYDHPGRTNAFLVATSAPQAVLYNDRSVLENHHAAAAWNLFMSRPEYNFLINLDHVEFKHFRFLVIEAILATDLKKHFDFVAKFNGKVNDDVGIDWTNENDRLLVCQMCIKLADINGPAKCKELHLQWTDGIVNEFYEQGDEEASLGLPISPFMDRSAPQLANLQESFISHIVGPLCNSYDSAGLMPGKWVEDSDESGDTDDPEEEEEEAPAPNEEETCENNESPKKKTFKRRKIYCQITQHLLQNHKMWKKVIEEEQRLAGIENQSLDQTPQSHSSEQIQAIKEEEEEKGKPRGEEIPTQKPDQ
To be noted: isozyme from human platelets; [3H]-cAMP or [3H]-cGMP substrate; read-out: PDE inhibiting activity : IC50(nM) PDE3. The text has this:
PDE 5 (cGMP specific PDE), PDE 3 (cGMP inhibited PDE) and PDE 2 (cGMP stimulated PDE) were separated from the platelets, PDE 1 (Ca-calmodulin dependent PDE) and PDE 4 (cAMP specific PDE) were separated from the heart and the kidney respectively. The method of Thompson, et al was partially modified to measure phosphodiesterase activities: […] of [3H]-cAMP or [3H]-cGMP was decomposed with phosphodiesterase. The produced 5'-AMP or 5'-GMP was decomposed to adenosine or guanosine with a snake venom (Sigma V7000). The reaction solution was added to anion exchange resin (Bio-Rad Co. Ltd., AG1-X8). Non-adsorbed adenosine or guanosine was counted by a liquid scintillation counter.

As to `COc1ccc(CNc2nc(-c3cccnc3)nc3sc(-c4ccncc4)c(C)c23)cc1Cl` [Compound 10], the concentration for half-maximal inhibition (IC50) was > 10000 nM in assay [1] and 3.3 nM in assay [2].

Take `COc1ccc(CNc2nc(-c3ccncc3)nc3sc(C(=O)N4CCN(C)CC4)c(C)c23)cc1Cl` [Compound 29]: the half-inhibitory concentration (IC50) in assay [1] is > 10000 nM; in assay [3] it was 6900 nM; in assay [2], 0.52 nM.

For `COc1ccc(CNc2nc(-c3cccnc3)nc3sc(C(N)=O)c(C)c23)cc1Cl` [Compound 3], the IC50 in assay [2] came out at 2.3 nM.

As for `COc1ccc(CNc2nc(-c3cccnc3)nc3sc(C(=O)NCCO)c(C)c23)cc1Cl` [Compound 17], the half-inhibitory concentration (IC50) in assay [2] worked out at 2.8 nM.

Regarding `COc1ccc(CNc2nc(-c3ccccn3)nc3sc(C(=O)Nc4ccccc4)c(C)c23)cc1Cl` [Compound 44], the figures for the half-maximal inhibitory concentration (IC50) in assay [1] and in assay [2] were > 10000 nM and 6.4 nM, respectively.

For `COc1ccc(CNc2nc(C(=O)Nc3ccccc3)nc3sc(-c4cccnc4)c(C)c23)cc1Cl` [Compound 57], in assay [2], the 50% inhibitory concentration (IC50) stood at 0.29 nM.

Consider `CCOC(=O)c1sc2nc(-c3ccncc3)nc(NCc3ccc(OC)c(Cl)c3)c2c1C` [Compound 20], for which the figures for the 50% inhibitory concentration (IC50) in assay [1], in assay [3] and in assay [2] were > 10000 nM, > 10000 nM and 3.2 nM, respectively.

In the case of `COc1ccc(CNc2nc(-c3cccnc3)nc3sc(C(=O)Nc4ccccc4)c(C)c23)cc1Cl` [Compound 6], the figures for the half-inhibitory concentration (IC50) in assay [1] and in assay [2] were > 10000 nM and 1.5 nM, respectively.

For the compound `COc1ccc(CNc2nc(C(=O)Nc3ccccc3)nc3sc(-c4ccncc4)c(C)c23)cc1Cl` [Compound 68], the IC50 in assay [1] was > 10000 nM; in assay [4], 2400 nM; in assay [3], 10000 nM; in assay [2], 0.27 nM.

Regarding `COc1ccc(CNc2nc(-c3ccccn3)nc3sc(C(=O)Nc4nccs4)c(C)c23)cc1Cl` [Compound 50], in assay [2], the IC50 came to 2.3 nM.

As to `COc1ccc(CNc2nc(-c3cccnc3)nc3sc(C(=O)N4CCOCC4)c(C)c23)cc1Cl` [Compound 7], the IC50 in assay [1] was > 10000 nM; in assay [3], 1700 nM; in assay [2], 3.5 nM.

As for `COc1ccc(CNc2nc(C(=O)Nc3ccccc3)nc3sc(C(=O)Nc4ccccc4)c(C)c23)cc1Cl` [Compound 87], in assay [2], the half-inhibitory concentration (IC50) was found to be 0.27 nM.

Regarding `COc1ccc(CNc2nc(C(=O)Nc3ccccc3)nc3sc(-c4ccccc4)cc23)cc1Cl` [Compound 94], the IC50 in assay [1] is > 10000 nM; in assay [4] it was > 10000 nM; in assay [3] it was 5600 nM; in assay [2], 0.71 nM.

Take `COc1ccc(CNc2nc(-c3cccnc3)nc3sc(C(=O)Nc4cccnc4)c(C)c23)cc1Cl` [Compound 14]: the IC50 in assay [2] was 2.1 nM.

Consider `COc1ccc(CNc2nc(C(=O)Nc3ccccc3)nc3scc(C)c23)cc1Cl` [Compound 91], for which the half-inhibitory concentration (IC50) in assay [1] is > 10000 nM; in assay [4] it was > 10000 nM; in assay [3] it was 3400 nM; in assay [2], 2.5 nM.

`COc1ccc(CNc2nc(-c3ccncc3)nc3sc(C(=O)N4CCCCC4)c(C)c23)cc1Cl` [Compound 28]: the IC50 was > 10000 nM in assay [1], 1600 nM in assay [3] and 0.5 nM in assay [2].

Turning to `COc1ccc(CNc2nc(-c3ccncc3)nc3sc(C(=O)Nc4ccc(N)cc4)c(C)c23)cc1Cl` [Compound 26], in assay [2], the IC50 came to 0.5 nM.

As for `COc1ccc(CNc2nc(-c3cccnc3)nc3sc(C(=O)NCCO[N+](=O)[O-])c(C)c23)cc1Cl` [Compound 18], the IC50 in assay [2] stood at 2.8 nM.

On to `COc1ccc(CNc2nc(-c3ccncc3)nc3sc(C(=O)N(C)C)c(C)c23)cc1Cl` [Compound 23], for which the concentration for half-maximal inhibition (IC50) in assay [1] is > 10000 nM; in assay [3] it was 1600 nM; in assay [2] it was 1.6 nM.

On to `COc1ccc(CNc2nc(-c3ccncc3)nc3sc(C(=O)O)c(C)c23)cc1Cl` [Compound 19], for which the IC50 in assay [1] was > 10000 nM; in assay [3], 4400 nM; in assay [2], 0.74 nM.

Regarding `COc1ccc(CNc2nc(C(=O)Nc3ccccc3)nc3sc(-c4ccc(F)cc4)c(C)c23)cc1Cl` [Compound 90], the IC50 in assay [1] is > 10000 nM; in assay [4], > 10000 nM; in assay [3], 8400 nM; in assay [2], 0.43 nM.

For the compound `COc1ccc(CNc2nc(-c3ccncc3)nc3sc(C(=O)N4CCOCC4)c(C)c23)cc1Cl` [Compound 27], the half-maximal inhibitory concentration (IC50) in assay [1] is > 10000 nM; in assay [3], 3700 nM; in assay [2], 0.53 nM.

In the case of `COc1ccc(CNc2nc(-c3cccnc3)nc3sc(C(=O)O)c(C)c23)cc1Cl` [Compound 1], the IC50 stood at 7100 nM in assay [1], 1200 nM in assay [3] and 3 nM in assay [2].

As to `COc1ccc(CNc2nc(-c3cccnc3)nc3sc(C(=O)N4CCN(C=O)CC4)c(C)c23)cc1Cl` [Compound 9], the 50% inhibitory concentration (IC50) in assay [2] was 6.1 nM.

Consider `COc1ccc(CNc2nc(-c3ccncc3)nc3sc(-c4ccccn4)c(C)c23)cc1Cl` [Compound 32], for which the values for the IC50 in assay [1], in assay [3] and in assay [2] were > 10000 nM, 240 nM and 0.68 nM, respectively.

As for `COc1ccc(CNc2nc(-c3cccnc3)nc3sc(C#N)c(C)c23)cc1Cl` [Compound 4], the concentration for half-maximal inhibition (IC50) in assay [2] amounted to 4.5 nM.

Turning to `COc1ccc(CNc2nc(-c3cccnc3)nc3sc(C(=O)Nc4nccs4)c(C)c23)cc1Cl` [Compound 13], the half-maximal inhibitory concentration (IC50) in assay [2] amounted to 0.32 nM.

In the case of `COc1ccc(CNc2nc(-c3ccncc3)nc3sc(C(=O)Nc4nccs4)c(C)c23)cc1Cl` [Compound 33], the IC50 in assay [2] is 0.095 nM.

Take `CCOC(=O)c1nc(NCc2ccc(OC)c(Cl)c2)c2cc(-c3ccccc3)sc2n1` [Compound 93]: the half-inhibitory concentration (IC50) is > 10000 nM in assay [1], > 10000 nM in assay [4], > 10000 nM in assay [3] and 2.9 nM in assay [2].

Regarding `COc1ccc(CNc2nc(-c3ccncc3)nc3sc(C(=O)Nc4ccccc4)c(C)c23)cc1Cl` [Compound 24], in assay [2], the 50% inhibitory concentration (IC50) worked out at 0.46 nM.

Turning to `CCCc1nn(C)c2c(=O)[nH]c(-c3cc(S(=O)(=O)N4CCN(C)CC4)ccc3OCC)nc12` [Control, Sildenafil, reference compound], the 50% inhibitory concentration (IC50) was 2000 nM in assay [1] and > 1000 nM in assay [3].

Consider `COc1ccc(CNc2nc(-c3cccnc3)nc3sc(C(=O)N(C)C)c(C)c23)cc1Cl` [Compound 5], for which the concentration for half-maximal inhibition (IC50) was > 10000 nM in assay [1], 1400 nM in assay [3] and 3.7 nM in assay [2].

Consider `COc1ccc(CNc2nc(-c3ccncc3)nc3sc(C(=O)NCCO[N+](=O)[O-])c(C)c23)cc1Cl` [Compound 38], for which the half-maximal inhibitory concentration (IC50) in assay [2] worked out at 0.65 nM.

As for `COc1ccc(CNc2nc(-c3ccncc3)nc3sc(C(=O)Nc4ccc(NC(=O)OC(C)(C)C)cc4)c(C)c23)cc1Cl` [Compound 25], the IC50 in assay [2] turned out to be 0.52 nM.

As for `COc1ccc(CNc2nc(-c3ccccn3)nc3sc(C(=O)Nc4cccnc4)c(C)c23)cc1Cl` [Compound 51], in assay [2], the IC50 turned out to be 7.2 nM.

One may read the IC50 as the concentration at which inhibition is half-maximal.
